One data set deals with LNCaP tumor. The data set can be described thus: SPECT/CT using LNCaP tumor-transplanted mouse. The class given is in vivo. How it is done:
(§1) LNCaP tumor-implanted mice prepared by the method described above were administered saline solutions (1.9 to 3.0 MBq, 150 μL) of [^111In]In-PSMA-DA1 or [^111In]In-PSMA-DB from the tail vein. SPECT/CT was performed 24 and 48 hours after administration with FX3300 pre-clinical imaging system, which is manufactured by Gamma Medica-Ideas. Imaging was performed using a pinhole collimator with a diameter of 1.0 mm at a rotation radius of 35 mm, a projection time of 70 seconds, and the number of projections of 32 times under isoflurane anesthesia. After SPECT, CT (Tube voltage: 60 kV, Tube current: 350 μA) was performed. Image reconstruction was performed on the projection data of SPECT through three-dimensional ordered subset expectation maximization method (8 subsets, 5 iterations).
In the figure, the part indicated by the arrow is the location of the tumor, and the part indicated by the circle is the location of the kidney. The higher the SUV, the higher the radioactivity accumulation. […]
as §1, with “SPECT/CT” for “LNCaP tumor-implanted mice prepared by the method described above were administered saline solutions (1.9 to 3.0 MBq, 150 μL) of [^111In]In-PSMA-DA1 or [^111In]In-PSMA-DB from the tail vein. SPECT/CT”, “24, 48,” for “24”, “96” for “48”

In data set [1] the test system is LNCaP cells (PSMA-positive, human prostate cancer). Nature of the data set: Binding assay using cultured cells (LNCaP). As to conditions: for binding to LNCaP cells on adding an excess amount of the PSMA inhibitor (2-PMPA): 2-PMPA final concentration 100 μM. The data set is classed as cell-based. The protocol: LNCaP cells (PSMA-positive, human prostate cancer) and PC-3 cells (PSMA-negative, human prostate cancer) were used. These cells were purchased from American Type Culture Collection and DS Biomedical, respectively. Each of the cells were cultured in RPMI 1640, which is manufactured by NACALAI TESQUE, INC. and contains antibiotics (penicillin and streptomycin) and 10% inactivated fetal bovine serum, at 37° C. under 5% CO2.
The LNCaP cells and PC-3 cells were each seeded on a 12 well plate at 4.0×10^5 cells/well, and left standing at 37° C. under 5% CO2 for 48 hours.
The culture medium was removed, and an assay medium (0.5% FBS-containing RPMI 1640 medium) solution (1 mL) containing [^111In]In-PSMA-DA1 or [^111In]In-PSMA-DB (37 kBq) was added. Thereafter, the plate was allowed to stand at 37° C. under 5% CO2 for 1 hour.
In the inhibition assays, after removing the culture medium, an assay medium (1 mL) solution containing: [^111In]In-PSMA-DA1 or [^111In]In-PSMA-DB (37 kBq); and 2-(phosphonomethyl) pentanedioic acid (2-PMPA) (PSMA inhibitor; final concentration: 100 μM) was added. Thereafter, the plate was allowed to stand at 37° C. under 5% CO2 for 1 hour.
After removing the assay medium, each well was washed with an assay medium (1 mL) containing neither the radiolabeled compound nor 2-PMPA, and the cells were lysed with 1 N aqueous sodium hydroxide solution (200 μL×2).
The radioactivity for each of the assay medium and the cell lysate was measured with a gamma counter. Separately, the total protein concentration in the cell lysate was calculated using BCA Protein Assay Kit, which is manufactured by Thermo Fisher Scientific K.K. The value (% ID/mg protein) obtained by dividing the percentage (% ID) of the sample's radioactivity amount to the added radioactivity amount by the total protein amount was calculated for each sample.
In the same manner as in Example 1-1 described above, LNCaP cells and PC-3 cells were cultured and cell-binding assay were performed. Evaluation was carried out by the same experimental procedure and statistical method as in Example 1-1, except that 0.5% FBS-containing RPMI 1640 medium (1 mL) containing [^111In]In-PtDA (37 kBq) was used.
LNCaP cells and PC-3 cells cultured in the same method as in Example 1-1 were each seeded on a 12 well plate at 4.0×10^5 cells/well, and left standing at 37° C. under 5% CO2 for 48 hours. The culture medium was removed, and an assay medium (0.5% FBS-containing RPMI 1640 medium) solution (1 mL) containing the radiolabeled compound (37 kBq each) in Examples 3-1 to 3-3 or Comparative Examples 2-1 to 2-2 was added. Thereafter, the plate was allowed to stand at 37° C. under 5% CO2 for 1 hour.
In the inhibition experiments, after removing the culture medium, an assay medium (1 mL) containing: the radiolabeled compound described above; and 2-(phosphonomethyl) pentanedioic acid (2-PMPA) (PSMA inhibitor; final concentration: 100 μM) was added. Thereafter, the plate was allowed to stand at 37° C. under 5% CO2 for 1 hour.
After removing the assay medium, each well was washed with assay medium (1 mL), and the cells were lysed with 1 N aqueous sodium hydroxide solution (200 μL×2).
Radioactivity of each of the cell lysates was measured with a gamma counter. Separately, the total protein concentration in the cell lysate was calculated using BCA Protein Assay Kit, which is manufactured by Thermo Fisher Scientific K.K. The value (% ID/mg protein) obtained by dividing the percentage (% ID) of the sample's radioactivity amount to the added radioactivity amount by the total protein amount was calculated for each sample.
LNCaP cells and PC-3 cells cultured in the same method as in Example 1-1 were each seeded on a 12 well plate at 4.0×10^5 cells/well, and left standing at 37° C. under 5% CO2 for 48 hours.
Thereafter, the plate was allowed to stand at 37° C. under 5% CO2 for 1 hour. […]

Data set [2] relates to plasma albumin (human plasma). Nature of the data set: Evaluation of binding to albumin (human plasma). To be noted: for radioactivity in the eluate (in words): left to stand in human plasma. The protocol: A PBS solution (37 kBq, 50 μL) of [^111In]In-PSMA-DA1 or [^111In]In-PSMA-DB was added to 200 μL of PBS, mouse plasma, human plasma, or a human serum albumin (HSA) solution (45 mg/mL) in PBS, respectively, and the mixtures were allowed to stand at 37° C. for 10 minutes. Thereafter, the reaction liquids were added to a spin column ([…]; manufactured by Cytiva), and centrifuged at 1500×g at 4° C. for 2 minutes. After separation, the radioactivity for each of the column and the eluate was measured with a gamma counter.
When a compound to be evaluated binds to albumin to form a composite, the compound passes through the column because of the increased molecular size.
As in Example 1-1 described above, PBS, mouse plasma, human plasma, and human albumin were used to evaluate binding to albumin. Evaluation was carried out by the same experimental procedure and statistical method as in Example 1-1, except that a PBS solution (37 kBq, 50 μL) of [^111In]In-PtDA was used.
Thereafter, the reaction liquid was added to a spin column (Sephadex G-50; manufactured by Cytiva), and centrifuged at 1500×g at 4° C. for 2 minutes. After separation, the radioactivity of the column and the eluate was measured with a gamma counter.

Where [3] appears, read: 24 (and 48) hours after administration.

On to `O=C([O-])CN(Cc1cccc(C(=O)[O-])n1)C[C@H](Cc1ccc(NC(=O)[C@H](CCCCNC(=O)CCC(=O)NCCCC[C@H](NC(=O)N[C@@H](CCC(=O)O)C(=O)O)C(=O)O)NC(=O)CCCc2ccc(I)cc2)cc1)N(CC(=O)[O-])Cc1cccc(C(=O)[O-])n1.[111In+3]` [[^111In]In-Octapa-2], for which, in the data set with LNCaP tumor (setting [3]), the “radioactivity accumulation at the LNCaP tumor in SPECT/CT” value is “high radioactivity accumulation” and the “radioactivity accumulation at the kidney in SPECT/CT” value is on record as “also observed”.

Turning to `O=C([O-])CN1CCN(C(CCC(=O)NCCCC[C@H](NC(=O)N[C@@H](CCC(=O)O)C(=O)O)C(=O)O)C(=O)[O-])CCN(CC(=O)[O-])CCN(C(CCC(=O)N[C@@H](CCCCNC(=O)CCCc2ccc(I)cc2)C(=O)O)C(=O)[O-])CC1.[111In+3]` (some centres unmarked) [[^111In]In-PSMA-DA1], the “binding to LNCaP cells on adding an excess amount of the PSMA inhibitor (2-PMPA)” value (“binding … of the PSMA inhibitor (2-PMPA)” below) in data set [1] is recorded as “significantly reduced”. For the same molecule, the “binding ability to LNCaP cells compared to PC-3 cells” value in data set [1] (37° C., 1 hour) was “high binding ability”. For the same molecule, in data set [2], the “radioactivity in the eluate (in words)” value is reported as “significantly higher”. Further, in the data set with LNCaP tumor (setting [3]), the “radioactivity accumulation at the LNCaP tumor in SPECT/CT” value was “significant radioactivity accumulation” and the “radioactivity accumulation at the kidney in SPECT/CT” value was “High radioactivity accumulation”.

As to `O=C([O-])CN1CCN(C(CCC(=O)NCCCC[C@H](NC(=O)N[C@@H](CCC(=O)O)C(=O)O)C(=O)O)C(=O)[O-])CCN(CC(=O)[O-])CCN(C(CCC(=O)Nc2ccccc2)C(=O)[O-])CC1.[111In+3]` (some centres unmarked) [[^111In]In-PSMA-DB, reference compound], the “binding … of the PSMA inhibitor (2-PMPA)” value in data set [1] was “significantly reduced”. In data set [1] (37° C., 1 hour), the “binding ability to LNCaP cells compared to PC-3 cells” value was “high binding ability”. The “radioactivity accumulation at the LNCaP tumor in SPECT/CT” value in the data set with LNCaP tumor (setting [3]) was “lower than at the kidney”.

Take `O=C(O)CC[C@H](NC(=O)N[C@@H](CCCCNC(=O)[C@H](Cc1ccc2ccccc2c1)NC(=O)[C@H]1CC[C@H](CNC(=O)CCC(C(=O)O)N2CCN(CC(=O)O)CCN(C(CCC(=O)N[C@@H](CCCCNC(=O)CCCc3ccc(I)cc3)C(=O)O)C(=O)O)CCN(CC(=O)O)CC2)CC1)C(=O)O)C(=O)O` (some centres unmarked) [[^111In]In-PSMA-NAT-DA1, metal not drawn]: the “binding … of the PSMA inhibitor (2-PMPA)” value in data set [1] is given as “significantly reduced”. Also, the “binding ability to LNCaP cells compared to PC-3 cells” value in data set [1] (37° C., 1 hour) is “high binding ability”. Further, the “radioactivity in the eluate (in words)” value in data set [2] was “significantly high”. Further, the “radioactivity accumulation at the LNCaP tumor in SPECT/CT” value with LNCaP tumor (setting [3]) is “significant radioactivity accumulation”. The “radioactivity accumulation at the kidney in SPECT/CT” value in the data set with LNCaP tumor (setting [3]) was “also observed”; in the data set on LNCaP tumor (96 hours after administration), “hardly observed”.

In the case of `O=C([O-])CN1CCN(C(CCC(=O)NCCC(=O)N2Cc3ccccc3-c3c(nnn3CCOCCOCCOCCOCCC(=O)NCCCC[C@H](NC(=O)N[C@@H](CCC(=O)O)C(=O)O)C(=O)O)-c3ccccc32)C(=O)[O-])CCN(CC(=O)[O-])CCN(C(CCC(=O)N[C@@H](CCCCNC(=O)CCCc2ccc(I)cc2)C(=O)O)C(=O)[O-])CC1.[111In+3]` (some centres unmarked) [[^111In]In-PtDA], the “binding to LNCaP cells with excess PSMA inhibitor (2-PMPA)” value in data set [1] (2-PMPA 100 μM) was found to be 0.36 % ID/mg protein. The “binding to LNCaP cells” value in data set [1] (37° C., 1 hour) was determined as 15 % ID/mg protein. Besides, in data set [2] (human plasma), the “radioactivity in the eluate” value is recorded as 79.0%. Also, in the data set on LNCaP tumor (setting [3]), the “radioactivity accumulation at the LNCaP tumor in SPECT/CT” value is listed as “high radioactivity accumulation”.

Source of the values: patent US20240174622A1, “COMPOUND AND RADIOACTIVE LABELING COMPOUND” (NIHON MEDI-PHYSICS CO., LTD., priority 2021, published 2024).
